Data on three compounds can be found in EP1127890A1, “Steroid derivatives with an additional ring annulated to ring A and use of these derivatives for the preparation of meiosis regulating medicaments” (SCHERING AKTIENGESELLSCHAFT, priority 2000, dated 2001).

Where “and” joins values, the source holds several entries; their conditions need not be identical. Equal values may be shown once.

The subject of assay [1] is naked mouse oocytes. Nature of the assay: Test of meiosis-inhibiting substances in the oocyte test (co-culture with FF-MAS in Hx-medium). The format is cell-based. The note with it: for Oocytes [n] GV: number of oocytes with germinal vesicle; for Oocytes [n] GVB: number of oocytes with germinal vesicle breakdown; for Oocytes [n] PB: number of oocytes with polar bodies. Here is the method: Oocytes were obtained from immature female mice (C57BI/6J × DBA/2J F1-hybrids, Bomholtgaard, Denmark) weighing 13 - 16 grams, that were kept under controlled lighting and temperature. The mice received an intra-peritoneal injection of 0.2 ml gonadotropins (Gonal F, Serono, Solna, Sweden , containing 20 IU FSH, alternatively, Puregon, Organon, Swords, Ireland containing 20 IU FSH) and 48 hours later the animals were killed by cervical dislocation. The ovaries were dissected out and the oocytes were isolated in Hx-medium (see below) under a stereo microscope by manual rupture of the follicles using a pair of 27 gauge needles. Spherical, naked oocytes (NO) displaying an intact germinal vesicle (GV) were placed in α-minimum essential medium (α-MEM without ribonucleosides, Gibco BRL, Cat.No. 22561) supplemented with 3 mM hypoxanthine (Sigma Cat. No. H-9377), 8 mg/ml Human Serum Albumin (HSA, State Serum Institute, Denmark), 0,23 mM pyrubate (Sigma, Cat. No. S-8636), 2 mM glutamine (Flow Cat. No. 16-801), 100 IU/ml penicillin and 100 µg/ml streptomycin (Flow, Cat No. 16-700). This medium was designated Hx-medium. The oocytes were rinsed three times in Hx-medium and cultured in 4-well multidishes (Nuncion, Denmark) in which each well contained 0.4 ml of Hx-medium and 30 - 40 oocytes. One control (i.e. 30 - 40 oocytes cultured in Hx-medium with no addition of test compound) was always run simultaneously with the test cultures, which were made with different concentrations of the compounds to be tested. The cultures were performed at 37 °C and 100 % humidity with 5 % CO2 in air. The culture time was 22 - 24 hours. Germinal vesicle (GV) oocytes were obtained from immature FSH treated female mice using the same methods as described in Example 1 (see above). Naked oocytes (NO) were rinsed three times in Hx-medium. […] NO were cultured in Hx-medium supplemented with 5 µM FF-MAS in co-culture with the test compounds in different concentrations in 4-well multidishes (Nunclon, Denmark) in which each well contained 0.4 ml of Hx-medium and 30 - 40 oocytes. One positive control (i.e., 30 - 40 oocytes cultured in Hx-medium containing FF-MAS with no addition of test compound) was always run simultaneously with the test cultures, which were supplemented with different concentrations of the compounds to be tested. In addition, one negative control ( 30 - 40 oocytes cultured in Hx-medium alone) was run simultaneously with the positive control. By the end of the culture period, the number of oocytes with germinal vesicle (GV) or germinal vesicle breakdown (GVB) and those with polar body (PB) was counted using a stereo microscope or an inverted microscope with differential interference contrast equipment. The percentage of oocytes with GVB + PB per total number of oocytes were calculated in the test cultures and in the control (positive and negative) culture groups. The relative inhibition of the test compound was calculated by the following formula: inhibition test compound (%) = 100% - [(GVB+PB (test compound) - GVB+PB (negative control)) x 100 / GVB+PB(positive control) - GVB+PB (negative control)] % [formula] Oocytes arrested in meiosis are characterised by an intact nucleus with a prominent nucleolus, known as germinal vesicle (GV). Upon reinitiation of meiosis the nucleolus and the nuclear envelope disappear and this is characterised by a breakdown of the GV, which than is called germinal vesicle breakdown (GVB). Some hours later the oocyte complete a reductional division and elicit the first so called polar body (PB).

Assay [2] has as its system naked mouse oocytes. Nature of the assay: Testing of meiosis-activating substances in the oocyte test (Hx-medium). The assay is classed as cell-based. The conditions noted are these: 10 µM in Hx-medium. The protocol: Oocytes were obtained from immature female mice (C57BI/6J × DBA/2J F1-hybrids, Bomholtgaard, Denmark) weighing 13 - 16 grams, that were kept under controlled lighting and temperature. The mice received an intra-peritoneal injection of 0.2 ml gonadotropins (Gonal F, Serono, Solna, Sweden , containing 20 IU FSH, alternatively, Puregon, Organon, Swords, Ireland containing 20 IU FSH) and 48 hours later the animals were killed by cervical dislocation.
The ovaries were dissected out and the oocytes were isolated in Hx-medium (see below) under a stereo microscope by manual rupture of the follicles using a pair of 27 gauge needles. Spherical, naked oocytes (NO) displaying an intact germinal vesicle (GV) were placed in α-minimum essential medium (α-MEM without ribonucleosides, Gibco BRL, Cat.No. 22561) supplemented with 3 mM hypoxanthine (Sigma Cat. No. H-9377), 8 mg/ml Human Serum Albumin (HSA, State Serum Institute, Denmark), 0,23 mM pyrubate (Sigma, Cat. No. S-8636), 2 mM glutamine (Flow Cat. No. 16-801), 100 IU/ml penicillin and 100 µg/ml streptomycin (Flow, Cat No. 16-700). This medium was designated Hx-medium. The oocytes were rinsed three times in Hx-medium and cultured in 4-well multidishes (Nuncion, Denmark) in which each well contained 0.4 ml of Hx-medium and 30 - 40 oocytes. One control (i.e. 30 - 40 oocytes cultured in Hx-medium with no addition of test compound) was always run simultaneously with the test cultures, which were made with different concentrations of the compounds to be tested. The cultures were performed at 37 °C and 100 % humidity with 5 % CO2 in air. The culture time was 22 - 24 hours.
By the end of the culture period, the number of oocytes with germinal vesicle (GV) or germinal vesicle breakdown (GVB) and those with polar body (PB) was counted using a stereo microscope or an inverted microscope with differential interference contrast equipment. The percentage of oocytes with GVB per total number of oocytes and the percentage of oocytes with PB per total number of oocytes was calculated in the test cultures and compared to the control culture.
Oocytes arrested in meiosis are characterised by an intact nucleus with a prominent nucleolus, known as germinal vesicle (GV). Upon reinitiation of meiosis the nucleolus and the nuclear envelope disappear and this is characterised by a breakdown of the GV, which than is called germinal vesicle breakdown (GVB). Some hours later the oocyte complete a reductional division and elicit the first so called polar body (PB).

Where [3] appears, read: 5µM FF-MAS + 10 µM test compound in Hx-medium.
Where [4] appears, read: 5µM FF-MAS + 10 µM test compound in Hx-medium, relative inhibition of meiosis.
Setting [5] is: 5µM FF-MAS alone in Hx-medium (positive control).

Take `CC(C)CCC[C@@H](C)[C@H]1CC[C@H]2C3=C(CC[C@]12C)[C@@]1(C)CC[C@@]2(OCCO)C[C@]1(CC3)[C@H](C)O2` [Example 5, 2-[(4aα-methyl-4a-homo-3α,5-methano-4-oxa-5α-cholest-8-en-3β-yl)oxy]ethanol]: in the assay on naked mouse oocytes [1] (setting [3]), the “Oocytes [n] GV” value is 30 n, the “Oocytes [n] GVB” value was found to be 0 n and the “Oocytes [n] PB” value amounted to 0 n. In addition, the “Inhibition [%]” value in the assay with naked mouse oocytes [1] (setting [4]) amounted to 100%.

As to `CC(C)=CCO[C@H]1CC[C@H]2[C@@H]3CC[C@]45C[C@H](CC[C@]4(C)[C@H]3CC[C@]12C)OC5=O` [Example 12, 17β-(prenyloxy)-5β-androstane-5,3β-carbolactone], in the assay with naked mouse oocytes [1] (setting [3]), the “Oocytes [n] GV” value came out at 24 n, the “Oocytes [n] GVB” value is 9 n and the “Oocytes [n] PB” value stood at 1 n. In the assay on naked mouse oocytes [1] (setting [4]), the “Inhibition [%]” value came to 84%.

The inhibition is the change of the read-out against control, counted positive when it falls. As to `CC(C)=CCC[C@@H](C)[C@H]1CC=C2C3=C(CC[C@@]21C)[C@@]1(C)CC[C@H](O)C(C)(C)[C@@H]1CC3` [FF-MAS, 4,4-Dimethylcholest-B, 14,24-trien-3β-ol], in the assay on naked mouse oocytes [2], the “Oocytes [n] GV” value worked out at 6 n, the “Oocytes [n] GVB” value came out at 31 n and the “Oocytes [n] PB” value was 2 n. Besides, the activation at 10 µM in the assay with naked mouse oocytes [2] (Mus musculus, Oocyte, read-out: Activation [%] GVB+PB) came out at 85%. In the assay with naked mouse oocytes [1] (setting [5]), the “Oocytes [n] GV” value is 4 n and 8 n; the “Oocytes [n] GVB” value was 16 n and 25 n. Moreover, the inhibition at 5 µM in the assay with naked mouse oocytes [1] (Mus musculus, Oocyte, 5µM FF-MAS alone in Hx-medium (positive control), relative inhibition of meiosis) worked out at 0%.
